Patent publication US20160089377A1, “THERAPEUTIC TARGETING OF THE MTOR PATHWAY IN NEURODEVELOPMENTAL AND NEUROPSYCHIATRIC DISEASE” (THE TRUSTEES OF COLUMBIA UNIVERISTY IN THE CITY OF NEW YORK, priority 2013, published 2016)
“Also recorded” adds a separate entry of the source.

Columns and labels:
[1] = test system: Cntnap2 mutant mice; experiment: Social interaction test (10-minute interval) and grooming; format: in vivo
Procedure: (§1) Cntnap2 mutant and WT mice were obtained from heterozygous crossings and were born with the expected Mendelian frequencies. The three obtained genotypes were housed together. Mice were treated with p.o. gavaging once per day with either WYE125132 (10 mg/kg) or vehicle. All procedures involving animals were performed in accordance with the Columbia University/New York State Psychiatric Institute animal research committee.
WYE125132 (Chemscene) was administered by a daily p.o. gavaging in a volume of 10 ml/kg. For all behavioral experiments, dams were treated from PO to P12 after which individual pups were gavaged on a daily basis going forward. Mice also received drug treatment on the days of testing, at least 1 hour prior the experiment. For the two-photon and cell size quantitation studies, mice were gavaged from P12 to p35, after they were
Mice were marked with ear tagging. Experimenters were blinded to the genotype during testing. Behavioral tests were performed in the New York State Psychiatric Institute behavioral test core facility.
Detailed measurements of interaction between pairs of mice placed together in standard cages provide insights into reciprocal social interactions (Silverman et al., 2010). We examined (i) whether juvenile Cntnap2 mutant mice display decreased social interaction over a 10-minute interval and (ii) whether mutant mice have reduced tendency to approach novel social stimuli, as evidenced by social inhibition in the first minute of the tested interval (Curley et al., 2009). The first minute of this social interaction paradigm represents the phase when preference for social novelty is normally established. There were significant differences between genotypes in the amount of time spent on social investigation of the stimulus animal both in the first minute of the test (One-Way ANOVA F2,38=5.01, P<0.05; FIG. 15A) as well as over the entire 10-minute test (F2,38=3.27, P<0.05; FIG. 15A). Both Cntnap2^+/− and Cntnap2^−/− mice investigated the stimulus mouse for less time than their wild-type (WT) littermates (Dunnett post-hoc tests, all P<0.05).
Mutant mice were treated with WYE125132 or vehicle by daily gavaging.

[2] = test system: glutamate receptor subunits GluR1, GluR2, NR1, NR2A, NR2B and mGluR5; experiment: Immunoblot of glutamate receptor subunits in PFC homogenates after treatment; format: in vivo, mice; settings: for expression of glutamate receptor subunits altered in mutants: Cntnap2-/- and Cntnap2+/- mice aged 5-8 months
Procedure: (§2) euthanized. For the electrophysiology and western blot rescue experiments, adult mice were gavaged for 14 consecutive days after which they were euthanized.
(§3) Western blot analysis of mouse brain tissue and immunocytochemistry in human brain tissue was performed using standard methods.
We also evaluated whether treatment with WYE126132 reverses the alterations in the expression of the glutamate receptor subunits found in Cntnap2 mutant mice. Mice aged 5-8 months were treated for consecutive days.

[3] = test system: phosphorylated ribosomal protein S6 (pS6); experiment: Immunoblot of phosphorylated S6 in cortex after WYE125132 treatment; format: in vivo; settings: cortex of Cntnap2-/- and Cntnap2+/- mice, 14 consecutive days gavage 10 mg/kg
Procedure: as §1, §2, §3
We examined whether we can reverse the dramatic enlargement of the pyramidal cell somata by targeting the mTOR overactivation. To this end, mice were gavaged daily with WYE125132 from P12 until P33-36 after which their brains were harvested for further analysis.

## CNC(=O)Nc1ccc(-c2nc(N3CC4CCC(C3)O4)c3cnn(C4CCC5(CC4)OCCO5)c3n2)cc1 [WYE125132]
[1]; Cntnap2+/- mice, daily gavage, P<0.05
  number (total frequency) of social interactions over the whole 10-minute interval: rescued; also recorded: corrects
[1]; Cntnap2+/- mice, daily gavage, versus vehicle, P<0.01
  social interaction deficits in the first minute of testing: reversal of the social interaction deficits; also recorded: corrects the social interaction deficits
[1]; Cntnap2+/- mutant mice, WYE125132 versus vehicle, P<0.05
  maximum grooming bout duration: increased significantly
[1]; Cntnap2 mutant mice
  time spent sniffing the stimulus mouse in the very first part of the test: increases the time
[1]; WT littermates
  time spent sniffing the stimulus mouse in the very first part of the test: no such effect
[2]
  expression of glutamate receptor subunits altered in mutants: entirely reversed; also recorded: complete normalization of all glutamate receptor subunits
[2]; listed as WYE126132
  expression of glutamate receptor subunits altered in mutants: complete normalization of all glutamate receptor subunits
[2]; WT mice
  expression of glutamate receptor subunits in WT animals: no effects
[3]
  phosphorylation of S6 (Phospho-S6: S6): reverses phosphorylation of S6 to levels observed in WT littermates; also recorded: completely reversed
